Test results reported in US20220105051A1, “COMPOUNDS FOR INCREASING MHC-I EXPRESSION AND MODULATING HISTONE DEACETYLASE ACTIVITY” (Cava Healthcare Inc., priority 2019, published 2022).
Entries after “also recorded” stand apart in the source; their conditions may differ.

Columns and labels:
[1] = molecular target: T1, HDAC8 (Homo sapiens, UniProt Q9BY41); test: Individualized HDAC assay, HDAC8; type: biochemical; conditions: purified enzyme; for concentration at which HDAC8 inhibition was seen: 5 to 0.02 μM tested; for HDAC8 activity at higher concentrations: up to 5 μM
T1 construct: purchased BPS Biosciences
T1 sequence (Q9BY41 1-377): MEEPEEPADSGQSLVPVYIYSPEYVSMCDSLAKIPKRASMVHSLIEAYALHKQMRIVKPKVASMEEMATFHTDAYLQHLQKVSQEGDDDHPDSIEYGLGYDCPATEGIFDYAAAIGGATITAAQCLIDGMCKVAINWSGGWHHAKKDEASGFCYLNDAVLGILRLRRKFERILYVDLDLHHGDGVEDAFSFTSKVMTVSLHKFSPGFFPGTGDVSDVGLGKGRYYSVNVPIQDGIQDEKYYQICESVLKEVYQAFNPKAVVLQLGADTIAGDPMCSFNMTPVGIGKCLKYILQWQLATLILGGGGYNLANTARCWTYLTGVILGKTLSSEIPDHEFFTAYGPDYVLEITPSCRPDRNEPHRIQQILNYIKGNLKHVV
Protocol: (§1) The activity of the curcuphenol analogues was assessed with purified HDAC enzymes from all classes I, II, and IV, as well as a select member of HDAC class III (SIRT1). HDACs 1-9 and SIRT1 were evaluated using HDAC Fluorogenic Assay Kits (BPS Biosciences). All assays were completed in black-sided clear-bottom 96 well plates (PerkinElmer), and all treatments were plated in triplicates. Treatment started at 5 μM and was two-fold diluted to a concentration 0.02 μM. The assays were measured using the Synergy HI hybrid reader (BioTek) and Gen5 software (BioTek), excitation was set to 360 nm and detection was measured at 450 nm with a gain of 100. Alternatively HDAC 10 and 11 (BPS Biosciences) were optimized for HDAC concentration using the HDAC-Glo™ I/II Assay and Screening System (Promega). Following optimization each HDAC was run following the Promega protocol in black-sided clear-bottomed 96 well plates in triplicates with same treatments listed above (PerkinElmer). Luminescence was read 30 minutes after HDAC-Glo™I/II reagent was added using the Synergy HI hybrid reader (BioTek) and Gen5 software (Bio-Tek). […] To calculate percent activity, the average of blank wells was subtracted from all treatment groups. The relative mean of activity of the HDAC being measured was determined and all wells that received treatment were divided this average, to give a percentage of activity.
(§2) To evaluate the effect of the compounds on specific HDACs, their activity was assessed with purified HDAC enzymes from all classes I, II, and IV, as well as a select member of HDAC class III (SIRT1). HDACs 1-9 and SIRT1 were evaluated using HDAC Fluorogenic Assay Kits (BPS Biosciences) following the manufacturer's recommendations. Compound treatment started at 5 μM and was two-fold diluted to a concentration 0.02 μM. Alternatively, HDAC 10 and 11 assays (BPS Biosciences) were optimized to be used with the HDAC-Glo™ I/II Assay and Screening System (Promega). The assays were measured using the Synergy HI hybrid reader (BioTek) and Gen5 software (Bio-Tek). […] To calculate the fold change in HDAC activity, the values from each treated well were divided by the relative mean of activity of the specific HDAC being measured.

[2] = molecular target: T2, HDAC11 (Homo sapiens, UniProt Q96DB2); test: Individualized HDAC assay, HDAC11 (HDAC-Glo); type: biochemical; conditions: purified enzyme, 5 to 0.02 μM
T2 construct: purchased BPS Biosciences
T2 sequence (Q96DB2 1-347): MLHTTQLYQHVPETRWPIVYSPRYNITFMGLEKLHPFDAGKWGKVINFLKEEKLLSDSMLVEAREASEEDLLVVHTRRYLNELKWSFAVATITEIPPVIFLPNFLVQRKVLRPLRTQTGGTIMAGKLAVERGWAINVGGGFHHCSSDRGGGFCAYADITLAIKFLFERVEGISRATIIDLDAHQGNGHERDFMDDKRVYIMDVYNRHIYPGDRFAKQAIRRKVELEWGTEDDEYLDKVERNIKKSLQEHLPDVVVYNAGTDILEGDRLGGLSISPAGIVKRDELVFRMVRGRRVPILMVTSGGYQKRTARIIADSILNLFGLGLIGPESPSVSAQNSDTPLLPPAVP
Protocol: as §1
as §2, with “Alternatively, HDAC 10 and 11 assays (BPS Biosciences) were optimized to be used with the HDAC-Glo™ I/II Assay and Screening System (Promega).” left out

[3] = Maximum tolerated dose; type: in vivo; conditions: for MTD at 14 days: female, C57BL/6, mouse, in vivo, ip, limited by solubility in 1% DMSO, read-out: highest maximum tolerated dose; for signs of toxicity (clinical signs, necropsy): i.p. 1.0, 3.5 and 5.2 mg/kg, 14 days, C57BL/6 mice
Protocol: British Columbia Cancer Agency (BCCA) completed the maximum tolerated dose study for compound P02-113, whereas P03-97-1 was assessed in-house following the same protocol. […]. The compounds were injected intraperitoneally (i.p.) at concentrations of 1.0 mg/kg (n=3), 3.5 mg/kg (n=3), or 5.2 mg/kg (n=3). These doses were based on the maximum solubility of the compounds that was determined using the known solubility of curcuphenol. Mice were assessed for clinical signs of toxicity for 14 days following injection. After 14 days the mice were euthanized and examined by necropsy, P02-113 was performed at BCCA, and P03-97-1 was performed by Animal Care Services located at the Center for Comparative Medicine on UBC Point Grey campus, Vancouver BC.
In vivo efficacy studies. Maximum tolerated dose (MTD). The maximum tolerated dose for the selected compounds, P02-113 and P03-97-1, were assessed in vivo. C57BI/6 mice were injected intraperitoneally (i.p.) with the test compounds at 3 different concentrations: 1.0 mg/kg (n=3), 3.5 mg/kg (n=3) and 5.2 mg/kg (n=3). Mice were then assessed for 14 days for clinical signs of toxicity and at the end point a necropsy was performed. […]

[4] = molecular target: T3, HDAC2 (Homo sapiens, UniProt Q92769); test: Individualized HDAC assay, HDAC2; type: biochemical; conditions: purified enzyme, 5 to 0.02 μM
T3 construct: purchased BPS Biosciences
Protocol: (§3) The activity of the curcuphenol analogues was assessed with purified HDAC enzymes from all classes I, II, and IV, as well as a select member of HDAC class III (SIRT1). HDACs 1-9 and SIRT1 were evaluated using HDAC Fluorogenic Assay Kits (BPS Biosciences). All assays were completed in black-sided clear-bottom 96 well plates (PerkinElmer), and all treatments were plated in triplicates. Treatment started at 5 μM and was two-fold diluted to a concentration 0.02 μM. The assays were measured using the Synergy HI hybrid reader (BioTek) and Gen5 software (BioTek), excitation was set to 360 nm and detection was measured at 450 nm with a gain of 100. […] Luminescence was read 30 minutes after HDAC-Glo™I/II reagent was added using the Synergy HI hybrid reader (BioTek) and Gen5 software (Bio-Tek). […] The relative mean of activity of the HDAC being measured was determined and all wells that received treatment were divided this average, to give a percentage of activity.
(§4) To evaluate the effect of the compounds on specific HDACs, their activity was assessed with purified HDAC enzymes from all classes I, II, and IV, as well as a select member of HDAC class III (SIRT1). HDACs 1-9 and SIRT1 were evaluated using HDAC Fluorogenic Assay Kits (BPS Biosciences) following the manufacturer's recommendations. […] The assays were measured using the Synergy HI hybrid reader (BioTek) and Gen5 software (Bio-Tek). […]

[5] = molecular target: T4, HDAC9 (Homo sapiens, UniProt Q9UKV0); test: Individualized HDAC assay, HDAC9; type: biochemical; conditions: purified enzyme, 5 to 0.02 μM
T4 construct: purchased BPS Biosciences
Protocol: as §1
as §2, with “Alternatively, HDAC 10 and 11 assays (BPS Biosciences) were optimized to be used with the HDAC-Glo™ I/II Assay and Screening System (Promega).” left out

[6] = molecular target: T5, HDAC1 (Homo sapiens, UniProt Q13547); test: Individualized HDAC assay, HDAC1; type: biochemical; conditions: purified enzyme, 5 to 0.02 μM
T5 construct: purchased BPS Biosciences
Protocol: as §3, §4

T4 sequence (Q9UKV0 whole entry): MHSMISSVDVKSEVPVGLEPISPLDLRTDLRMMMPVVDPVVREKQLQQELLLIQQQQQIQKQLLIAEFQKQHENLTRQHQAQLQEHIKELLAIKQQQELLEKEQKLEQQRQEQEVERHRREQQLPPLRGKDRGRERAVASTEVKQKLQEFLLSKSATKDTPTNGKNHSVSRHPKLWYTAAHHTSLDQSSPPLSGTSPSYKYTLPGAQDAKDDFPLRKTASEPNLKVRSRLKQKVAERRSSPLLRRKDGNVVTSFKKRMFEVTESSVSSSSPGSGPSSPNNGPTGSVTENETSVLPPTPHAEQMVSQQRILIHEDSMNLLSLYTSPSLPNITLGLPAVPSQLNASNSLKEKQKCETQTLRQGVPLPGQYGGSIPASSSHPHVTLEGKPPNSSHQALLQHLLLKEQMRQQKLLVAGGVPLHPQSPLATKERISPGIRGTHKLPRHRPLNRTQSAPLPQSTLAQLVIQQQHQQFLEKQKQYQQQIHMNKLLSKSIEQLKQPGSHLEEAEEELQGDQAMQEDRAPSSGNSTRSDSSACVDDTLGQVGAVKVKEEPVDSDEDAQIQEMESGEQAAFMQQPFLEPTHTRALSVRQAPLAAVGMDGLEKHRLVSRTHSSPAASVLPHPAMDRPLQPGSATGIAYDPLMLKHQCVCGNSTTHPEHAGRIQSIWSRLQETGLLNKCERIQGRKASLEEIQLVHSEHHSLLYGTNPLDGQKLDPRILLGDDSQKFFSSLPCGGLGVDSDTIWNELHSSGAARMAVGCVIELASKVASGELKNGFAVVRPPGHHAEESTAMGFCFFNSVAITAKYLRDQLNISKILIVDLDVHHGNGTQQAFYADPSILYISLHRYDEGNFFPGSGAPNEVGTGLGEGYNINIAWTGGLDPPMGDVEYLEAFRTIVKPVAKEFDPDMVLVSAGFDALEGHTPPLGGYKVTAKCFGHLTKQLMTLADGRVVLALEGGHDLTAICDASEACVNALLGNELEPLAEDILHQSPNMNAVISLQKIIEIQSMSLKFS
T5 sequence (Q13547 whole entry): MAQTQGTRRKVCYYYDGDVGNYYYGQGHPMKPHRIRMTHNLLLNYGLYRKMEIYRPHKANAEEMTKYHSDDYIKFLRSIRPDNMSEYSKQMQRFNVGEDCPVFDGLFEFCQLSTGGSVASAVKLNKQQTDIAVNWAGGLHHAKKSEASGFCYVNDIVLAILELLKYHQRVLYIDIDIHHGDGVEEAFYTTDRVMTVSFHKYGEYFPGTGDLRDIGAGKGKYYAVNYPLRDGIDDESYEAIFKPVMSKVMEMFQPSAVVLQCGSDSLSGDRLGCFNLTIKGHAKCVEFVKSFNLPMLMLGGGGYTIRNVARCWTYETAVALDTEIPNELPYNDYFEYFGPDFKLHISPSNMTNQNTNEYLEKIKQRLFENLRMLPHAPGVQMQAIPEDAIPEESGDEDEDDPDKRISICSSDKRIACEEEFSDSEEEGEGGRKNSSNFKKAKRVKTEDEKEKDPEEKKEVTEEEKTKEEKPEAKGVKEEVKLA
T3 sequence (Q92769 whole entry): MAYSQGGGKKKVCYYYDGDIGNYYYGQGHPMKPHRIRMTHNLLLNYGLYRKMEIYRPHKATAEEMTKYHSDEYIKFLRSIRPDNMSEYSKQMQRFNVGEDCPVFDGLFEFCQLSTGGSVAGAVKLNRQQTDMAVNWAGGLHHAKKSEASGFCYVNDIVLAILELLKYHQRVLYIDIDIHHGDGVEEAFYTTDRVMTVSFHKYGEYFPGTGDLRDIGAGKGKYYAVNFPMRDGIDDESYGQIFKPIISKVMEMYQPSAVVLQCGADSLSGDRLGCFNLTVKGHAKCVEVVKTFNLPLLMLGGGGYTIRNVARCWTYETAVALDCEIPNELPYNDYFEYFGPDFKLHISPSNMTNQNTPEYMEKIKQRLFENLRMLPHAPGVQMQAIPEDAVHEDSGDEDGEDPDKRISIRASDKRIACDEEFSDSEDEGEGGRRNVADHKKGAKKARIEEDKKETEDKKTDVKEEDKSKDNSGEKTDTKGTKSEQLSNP

SMILES	effect on HDAC8 activity [1]	HDAC11 activity [2]	HDAC11 activity ([2]; listed as PO-3-97-1)	MTD at 14 days [3]	signs of toxicity (clinical signs, necropsy) [3]	HDAC2 activity [4]	HDAC9 activity [5]	HDAC9 activity ([5]; listed as PO-3-97-1)	HDAC1 activity [6]	concentration at which HDAC8 inhibition was seen [1]	HDAC8 activity at higher concentrations [1]
CC(C)=CCC[C@H](C)c1ccc(C)cc1O [Curcuphenol, curcuphenol]	selectively inhibits										
COc1ccc(C(C)CCC=C(C)C)c(O)c1 (stereo not drawn) [P03-97-1]	act as inhibitors to HDAC8; also recorded: slight inhibition at lower concentrations	unaffected; also recorded: no change in activity	no effect was observed	5.2 mg/kg	no signs of toxicity or abnormalities; also recorded: no adverse drug effects	no significant change in HDAC activity	no change in activity; also recorded: unaffected	did not affect the activity	no significant change in HDAC activity	0.02 µM	no change in activity
CC(C)=CCCCc1ccc(C)cc1O [P02-113]	act as inhibitors to HDAC8; also recorded: slight inhibition at lower concentrations	unaffected; also recorded: no effect was observed; also recorded: no change in activity		5.2 mg/kg	no signs of toxicity or abnormalities; also recorded: no adverse drug effects	no significant change in HDAC activity	no change in activity; also recorded: did not affect the activity; also recorded: unaffected		no significant change in HDAC activity	≤ 0.3 µM	no change in HDAC8 activity
